Where a SMILES comes first, the peptide text is derived from it. The star is where a group is joined. Cbz = O=C(OCc1ccccc1)*; CH2F = FC*

The test system of this assay is primary neurons. As to the kind of experiment: Death of primary neurons with purified cis P-tau. Type of assay: cell-based.

`COC(=O)C[C@H](NC(=O)[C@H](C)NC(=O)[C@@H](NC(=O)OCc1ccccc1)C(C)C)C(=O)CF` [Z-VAD-FMK] (Cbz-Val-Ala-Asp(OMe)-CH2F): the “death in primary neurons induced by purified cis P-tau” value is “blocked”.
